# Test results: US20100041756A1, “METHOD OF MODULATING B CELL FUNCTIONING” (priority 2004, published 2010)
# Test system: DBA/1 mice immunised with type II collagen in CFA
# Assay: Development of collagen-induced arthritis, treatment from the day of immunisation (Example 4)
# Type: in vivo, mouse
# Description: Type II collagen was purified from bovine cartilage, as described [Williams, R. O. 2004, Methods Mol. Med. 98:207-216] and solubilized by stirring overnight at 4° C. in acetic acid (0.1M) or Tris buffer (0.05 M Tris, containing 0.2 M NaCl, pH 7.4). Tranilast was synthesised by Angiogen Pharmaceuticals Pty. Ltd. For in vivo studies Tranilast was dissolved at a maximum concentration of 10 mg/ml in 1% sodium bicarbonate by heating for 1 h at 70° C. Upon cooling, an emulsion was formed. For in vitro studies Tranilast was dissolved in dimethyl sulphoxide (DMSO). 3-Hydroxy-anthranilic acid (3-HAA) was purchased from Sigma (Poole, UK) and dissolved in PBS.
# Male DBA/1 mice (8-12 weeks old) were immunized intradermally at the base of the tail with bovine type II collagen (200 μg) emulsified in complete Freund's adjuvant (CFA; Difco, West Moseley, UK). Arthritis was monitored clinically using the following scoring system: 0=normal, 1=slight swelling and/or erythema, and 2=pronounced oedematous swelling. Each limb was graded, giving a maximum score of 8 per mouse. In addition, paw-swelling was measured using calipers.
# ELISA plates (Nunc, Uxbridge, UK) were coated with 2 μg/ml of bovine CII dissolved overnight in Tris Buffer (0.05 M Tris, containing 0.2 M NaCl, pH 7.4) blocked with 2% bovine serum albumin (BSA) and then incubated with serial dilutions of test sera. A reference sample was included on each plate. Bound total IgG, IgG1 or IgG2a was detected by incubation with HRP-conjugated sheep anti-mouse IgG, IgG1 or IgG2a, followed by TMB substrate. Optical density was measured at 450 nm.
# In order to assess its anti-arthritic potential, Tranilast was injected into DBA/1 mice (200 mg/kg/day) from the day of immunisation with type II collagen in CFA. By day 28, 5 of 7 (71%) vehicle treated mice had developed arthritis of moderate severity (clinical score 2.8±0.6), whilst 1 of 7 (14%) Tranilast-treated mice had developed mild arthritis (clinical score 1).
structure (smiles),measurement,setting,value
"COc1ccc(/C=C/C(=O)Nc2ccccc2C(=O)O)cc1OC [Tranilast, 2-[[3-(3,4-dimethoxyphenyl)-1-oxo-2-propenyl]amino]benzoic acid]",anti-collagen IgG1 or IgG2a levels in sera,200 mg/kg/day from the day of immunisation,no change
same,mice that had developed arthritis by day 28,"200 mg/kg/day from the day of immunisation, 1 of 7 mice",14%
same,clinical score,"day 28, 200 mg/kg/day from the day of immunisation",1
